Test results as given in PMC10945555, “Improving Activity of New Arylurea Agents against Multidrug-Resistant and Biofilm-Producing Staphylococcus epidermidis” (ACS Medicinal Chemistry Letters, 2024).
Values after ≈ are worked out from the molar mass of the structure shown. Where two headings read alike, the source gives them in different places.

Experiments:
[1] = tested on: clinical MDR Staphylococcus epidermidis isolates; test: MIC, broth microdilution, 81 clinical MDR strains; type: cell-based
Experimental: (§1) 2 Biological assay protocols
(§2) Microbiological tests were carried out under aseptic conditions in a laminar chamber of the 2nd […]
(§3) (BioTectum 1.2, Alchem Poland). The assessment of antimicrobial activity was carried out for final compounds in the form of free bases, soluble in DMSO (Merck, Germany), at the initial […]
(§4) concentration of 1 mg/mL. […]
were provided by Cayman Chemical, USA. […]
The antibacterial activity of selected compounds was also tested on a panel of 81 unrelated, multidrug -resistant clinical strains of Staphylococcus epidermidis from the own collection of the Department of Pharmaceutical Microbiology of the Jagiellonian University Medical College.
(§5) 2.2 Effect of evaluated compounds on planktonic cells
(§6) The susceptibility of three reference bacterial strains (Staphylococcus epidermidis ATCC […]
(§7) Table S1) and 81 clinical MDR S. epidermidis (Table S2) to the tested compounds was assessed by determining the MIC value (Minimal Inhibitory Concentration) by microdilution in a liquid medium in 96-well flat-bottom cell culture plates (Nest Biotechnology Scientific, USA). The antibacterial properties of the compo unds were tested in the concentration range from 50 µg/mL to 0.1 µg/mL by making a series of double dilutions of the compound in liquid Mueller -Hinton II Broth Cation Adjusted (MHB II, BBL TM, USA) according to the European Committee on […]
(§8) Antimicrobial Susceptibility Testing guidelines (EUCAST).2,3 The determinations were performed twice. The MIC50 and MIC90 values were determined for each of the tested

[2] = tested on: Staphylococcus aureus ATCC BAA-976; test: MIC, broth microdilution, MDR/BPSA reference strain; type: cell-based; details: ATCCBAA976; Staphylococcus aureus ATCC BAA-976; read-out: MIC MDR/BPSA
Text: These strains included susceptible, multidrug-resistant, and biofilm-producing strains of S. epidermidis and S. aureus (MSSE, MDR/BPSE, and MDR/BPSA, respectively). The cornerstone antibiotic linezolid served as a positive control (Table 1). The impact of structural modifications at the aryloxy fragment and the aromatic moiety bound to the propyl linker on the inhibitory activity was initially investigated. […] Further optimization focused on evaluating the impact of the type of substituent and its position on the arylsulfonamide fragment’s activity.
as §1, §2, §3, §4
were provided by Cayman Chemical, USA.
The activity of all newly synthesized compounds was tested in vitro on a panel of selected reference strains from the American Type Culture Collection (ATCC) of Gram-positive […]
as §5, §6, §7, §8

## O=C(Nc1cccc(Cl)c1)NC1CCN(CCC(Oc2ccc(C(F)(F)F)cc2)c2cccs2)CC1 (stereo not drawn) [Compound 25]
[1]; Staphylococcus epidermidis, clinical strain 42 (Table S5), read-out: MIC
  MIC: 0.8 µg/mL (≈ 1.49 µM)
[1]; Staphylococcus epidermidis, clinical strain 43 (Table S2), read-out: MIC
  MIC: 1.6 µg/mL (≈ 2.97 µM)
[1]; Staphylococcus epidermidis, clinical strain 43 (Table S5), read-out: MIC
  MIC: 1.6 µg/mL (≈ 2.97 µM)
[1]; Staphylococcus epidermidis, clinical strain 44 (Table S2), read-out: MIC
  MIC: 1.6 µg/mL (≈ 2.97 µM)
[1]; Staphylococcus epidermidis, clinical strain 44 (Table S5), read-out: MIC
  MIC: 1.6 µg/mL (≈ 2.97 µM)
[1]; Staphylococcus epidermidis, clinical strain 45 (Table S2), read-out: MIC
  MIC: 1.6 µg/mL (≈ 2.97 µM)
[1]; Staphylococcus epidermidis, clinical strain 45 (Table S5), read-out: MIC
  MIC: 1.6 µg/mL (≈ 2.97 µM)
[1]; Staphylococcus epidermidis, clinical strain 46 (Table S2), read-out: MIC
  MIC: 1.6 µg/mL (≈ 2.97 µM)
[1]; Staphylococcus epidermidis, clinical strain 46 (Table S5), read-out: MIC
  MIC: 0.8 µg/mL (≈ 1.49 µM)
[1]; Staphylococcus epidermidis, clinical strain 47 (Table S2), read-out: MIC
  MIC: 1.6 µg/mL (≈ 2.97 µM)
[1]; Staphylococcus epidermidis, clinical strain 47 (Table S5), read-out: MIC
  MIC: 1.6 µg/mL (≈ 2.97 µM)
[1]; Staphylococcus epidermidis, clinical strain 48 (Table S2), read-out: MIC
  MIC: 1.6 µg/mL (≈ 2.97 µM)
[1]; Staphylococcus epidermidis, clinical strain 48 (Table S5), read-out: MIC
  MIC: 1.6 µg/mL (≈ 2.97 µM)
[1]; Staphylococcus epidermidis, clinical strain 49 (Table S2), read-out: MIC
  MIC: 0.1 µg/mL (≈ 0.186 µM)
[1]; Staphylococcus epidermidis, clinical strain 49 (Table S5), read-out: MIC
  MIC: 0.1 µg/mL (≈ 0.186 µM)
[1]; Staphylococcus epidermidis, clinical strain 50 (Table S2), read-out: MIC
  MIC: 3.12 µg/mL (≈ 5.81 µM)
[1]; Staphylococcus epidermidis, clinical strain 50 (Table S5), read-out: MIC
  MIC: 3.12 µg/mL (≈ 5.81 µM)
[1]; Staphylococcus epidermidis, clinical strain 51 (Table S2), read-out: MIC
  MIC: 3.12 µg/mL (≈ 5.81 µM)
[1]; Staphylococcus epidermidis, clinical strain 51 (Table S5), read-out: MIC
  MIC: 3.12 µg/mL (≈ 5.81 µM)
[1]; Staphylococcus epidermidis, clinical strain 52 (Table S2), read-out: MIC
  MIC: 3.12 µg/mL (≈ 5.81 µM)
[1]; Staphylococcus epidermidis, clinical strain 52 (Table S5), read-out: MIC
  MIC: 3.12 µg/mL (≈ 5.81 µM)
[1]; Staphylococcus epidermidis, clinical strain 53 (Table S2), read-out: MIC
  MIC: 3.12 µg/mL (≈ 5.81 µM)
[1]; Staphylococcus epidermidis, clinical strain 53 (Table S5), read-out: MIC
  MIC: 3.12 µg/mL (≈ 5.81 µM)
[1]; Staphylococcus epidermidis, clinical strain 54 (Table S2), read-out: MIC
  MIC: 0.8 µg/mL (≈ 1.49 µM)
[1]; Staphylococcus epidermidis, clinical strain 54 (Table S5), read-out: MIC
  MIC: 0.8 µg/mL (≈ 1.49 µM)
[1]; Staphylococcus epidermidis, clinical strain 55 (Table S2), read-out: MIC
  MIC: 3.12 µg/mL (≈ 5.81 µM)
[1]; Staphylococcus epidermidis, clinical strain 55 (Table S5), read-out: MIC
  MIC: 3.12 µg/mL (≈ 5.81 µM)
[1]; Staphylococcus epidermidis, clinical strain 56 (Table S2), read-out: MIC
  MIC: 1.6 µg/mL (≈ 2.97 µM)
[1]; Staphylococcus epidermidis, clinical strain 56 (Table S5), read-out: MIC
  MIC: 1.6 µg/mL (≈ 2.97 µM)
[1]; Staphylococcus epidermidis, clinical strain 57 (Table S2), read-out: MIC
  MIC: 3.12 µg/mL (≈ 5.81 µM)
[1]; Staphylococcus epidermidis, clinical strain 57 (Table S5), read-out: MIC
  MIC: 3.12 µg/mL (≈ 5.81 µM)
[1]; Staphylococcus epidermidis, clinical strain 58 (Table S2), read-out: MIC
  MIC: 0.8 µg/mL (≈ 1.49 µM)
[1]; Staphylococcus epidermidis, clinical strain 58 (Table S5), read-out: MIC
  MIC: 0.8 µg/mL (≈ 1.49 µM)
[1]; Staphylococcus epidermidis, clinical strain 59 (Table S2), read-out: MIC
  MIC: 3.12 µg/mL (≈ 5.81 µM)
[1]; Staphylococcus epidermidis, clinical strain 59 (Table S5), read-out: MIC
  MIC: 3.12 µg/mL (≈ 5.81 µM)
[1]; Staphylococcus epidermidis, clinical strain 60 (Table S2), read-out: MIC
  MIC: 3.12 µg/mL (≈ 5.81 µM)
[1]; Staphylococcus epidermidis, clinical strain 60 (Table S5), read-out: MIC
  MIC: 3.12 µg/mL (≈ 5.81 µM)
[1]; Staphylococcus epidermidis, clinical strain 61 (Table S2), read-out: MIC
  MIC: 1.6 µg/mL (≈ 2.97 µM)
[1]; Staphylococcus epidermidis, clinical strain 61 (Table S5), read-out: MIC
  MIC: 1.6 µg/mL (≈ 2.97 µM)
[1]; Staphylococcus epidermidis, clinical strain 62 (Table S2), read-out: MIC
  MIC: 1.6 µg/mL (≈ 2.97 µM)
[1]; Staphylococcus epidermidis, clinical strain 62 (Table S5), read-out: MIC
  MIC: 1.6 µg/mL (≈ 2.97 µM)
[1]; Staphylococcus epidermidis, clinical strain 63 (Table S2), read-out: MIC
  MIC: 1.6 µg/mL (≈ 2.97 µM)
[1]; Staphylococcus epidermidis, clinical strain 63 (Table S5), read-out: MIC
  MIC: 1.6 µg/mL (≈ 2.97 µM)
[1]; Staphylococcus epidermidis, clinical strain 64 (Table S2), read-out: MIC
  MIC: 3.12 µg/mL (≈ 5.81 µM)
[1]; Staphylococcus epidermidis, clinical strain 64 (Table S5), read-out: MIC
  MIC: 3.12 µg/mL (≈ 5.81 µM)
[1]; Staphylococcus epidermidis, clinical strain 65 (Table S2), read-out: MIC
  MIC: 3.12 µg/mL (≈ 5.81 µM)
[1]; Staphylococcus epidermidis, clinical strain 65 (Table S5), read-out: MIC
  MIC: 3.12 µg/mL (≈ 5.81 µM)
[1]; Staphylococcus epidermidis, clinical strain 66 (Table S2), read-out: MIC
  MIC: 1.6 µg/mL (≈ 2.97 µM)
[1]; Staphylococcus epidermidis, clinical strain 66 (Table S5), read-out: MIC
  MIC: 1.6 µg/mL (≈ 2.97 µM)
[1]; Staphylococcus epidermidis, clinical strain 67 (Table S2), read-out: MIC
  MIC: 3.12 µg/mL (≈ 5.81 µM)
[1]; Staphylococcus epidermidis, clinical strain 67 (Table S5), read-out: MIC
  MIC: 3.12 µg/mL (≈ 5.81 µM)
[1]; Staphylococcus epidermidis, clinical strain 68 (Table S2), read-out: MIC
  MIC: 3.12 µg/mL (≈ 5.81 µM)
[1]; Staphylococcus epidermidis, clinical strain 68 (Table S5), read-out: MIC
  MIC: 3.12 µg/mL (≈ 5.81 µM)
[1]; Staphylococcus epidermidis, clinical strain 69 (Table S2), read-out: MIC
  MIC: 1.6 µg/mL (≈ 2.97 µM)
[1]; Staphylococcus epidermidis, clinical strain 69 (Table S5), read-out: MIC
  MIC: 1.6 µg/mL (≈ 2.97 µM)
[1]; Staphylococcus epidermidis, clinical strain 70 (Table S2), read-out: MIC
  MIC: 3.12 µg/mL (≈ 5.81 µM)
[1]; Staphylococcus epidermidis, clinical strain 70 (Table S5), read-out: MIC
  MIC: 3.12 µg/mL (≈ 5.81 µM)
[1]; Staphylococcus epidermidis, clinical strain 71 (Table S2), read-out: MIC
  MIC: 1.6 µg/mL (≈ 2.97 µM)
[1]; Staphylococcus epidermidis, clinical strain 71 (Table S5), read-out: MIC
  MIC: 1.6 µg/mL (≈ 2.97 µM)
[1]; Staphylococcus epidermidis, clinical strain 72 (Table S2), read-out: MIC
  MIC: 3.12 µg/mL (≈ 5.81 µM)
[1]; Staphylococcus epidermidis, clinical strain 72 (Table S5), read-out: MIC
  MIC: 3.12 µg/mL (≈ 5.81 µM)
[1]; Staphylococcus epidermidis, clinical strain 73 (Table S2), read-out: MIC
  MIC: 0.4 µg/mL (≈ 0.743 µM)
[1]; Staphylococcus epidermidis, clinical strain 73 (Table S5), read-out: MIC
  MIC: 0.4 µg/mL (≈ 0.743 µM)
[1]; Staphylococcus epidermidis, clinical strain 74 (Table S2), read-out: MIC
  MIC: 3.12 µg/mL (≈ 5.81 µM)
[1]; Staphylococcus epidermidis, clinical strain 74 (Table S5), read-out: MIC
  MIC: 3.12 µg/mL (≈ 5.81 µM)
[1]; Staphylococcus epidermidis, clinical strain 75 (Table S2), read-out: MIC
  MIC: 3.12 µg/mL (≈ 5.81 µM)
[1]; Staphylococcus epidermidis, clinical strain 75 (Table S5), read-out: MIC
  MIC: 3.12 µg/mL (≈ 5.81 µM)
[1]; Staphylococcus epidermidis, clinical strain 76 (Table S2), read-out: MIC
  MIC: 1.6 µg/mL (≈ 2.97 µM)
[1]; Staphylococcus epidermidis, clinical strain 76 (Table S5), read-out: MIC
  MIC: 1.6 µg/mL (≈ 2.97 µM)
[1]; Staphylococcus epidermidis, clinical strain 77 (Table S2), read-out: MIC
  MIC: 3.12 µg/mL (≈ 5.81 µM)
[1]; Staphylococcus epidermidis, clinical strain 77 (Table S5), read-out: MIC
  MIC: 3.12 µg/mL (≈ 5.81 µM)
[1]; Staphylococcus epidermidis, clinical strain 78 (Table S2), read-out: MIC
  MIC: 1.6 µg/mL (≈ 2.97 µM)
[1]; Staphylococcus epidermidis, clinical strain 78 (Table S5), read-out: MIC
  MIC: 1.6 µg/mL (≈ 2.97 µM)
[1]; Staphylococcus epidermidis, clinical strain 79 (Table S2), read-out: MIC
  MIC: 0.4 µg/mL (≈ 0.743 µM)
[1]; Staphylococcus epidermidis, clinical strain 79 (Table S5), read-out: MIC
  MIC: 0.4 µg/mL (≈ 0.743 µM)
[1]; Staphylococcus epidermidis, clinical strain 80 (Table S2), read-out: MIC
  MIC: 3.12 µg/mL (≈ 5.81 µM)
[1]; Staphylococcus epidermidis, clinical strain 80 (Table S5), read-out: MIC
  MIC: 3.12 µg/mL (≈ 5.81 µM)
[1]; Staphylococcus epidermidis, clinical strain 81 (Table S2), read-out: MIC
  MIC: 0.2 µg/mL (≈ 0.372 µM)
[1]; Staphylococcus epidermidis, clinical strain 81 (Table S5), read-out: MIC
  MIC: 0.2 µg/mL (≈ 0.372 µM)
[1]; Staphylococcus epidermidis, mean of MIC values against clinical MDR-SE isolates, read-out: mean MIC
  MIC: 1.76 µg/mL (≈ 3.27 µM)
[1]; Staphylococcus epidermidis, 81 clinical strains, concentration inhibiting growth of 50% clinical isolates
  MIC50: 1.6 µg/mL (≈ 2.97 µM)
[1]; Staphylococcus epidermidis, 81 clinical strains, concentration inhibiting growth of 90% of clinical isolates
  MIC90: 3.12 µg/mL (≈ 5.81 µM)
[1]; all reference and clinical MDR S. epidermidis strains
  category according to EUCAST clinical breakpoints for linezolid: within the susceptible category
[2]
  MIC: 1.6 µg/mL (≈ 2.97 µM)
